According to patent US11053204B2, “Pyrimidinyloxy benzene derivatives as herbicides” (FMC Corporation, priority 2015, dated 2021):

Legend:
Format in all cases: in vivo
[1] = tested on: Italian ryegrass (Lolium multiflorum); assay: Test A preemergence, visual injury rating; details: 0 to 100 scale (0 no effect, 100 complete control)
Outline: (§1)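 Visual 0–100 rating (100 = complete control) taken about 10 d post-treatment relative to untreated checks. Preemergence: directed soil spray on sown loam/sand pots. Postemergence: seedlings 2–10 cm, 1–2 leaf. Non-phytotoxic solvent formulation with surfactant.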

[2] = tested on: barnyardgrass (Echinochloa crus-galli); assay: Test A preemergence, visual injury rating; details: 0 to 100 scale (0 no effect, 100 complete control)
Outline: as §1

[3] = tested on: giant foxtail (Setaria faberii); assay: Test A preemergence, visual injury rating; details: 0 to 100 scale (0 no effect, 100 complete control)
Outline: as §1

kochia (Kochia scoparia) = assay: Test A preemergence, visual injury rating; details: 0 to 100 scale (0 no effect, 100 complete control)
Outline: as §1

[4] = tested on: pigweed (Amaranthus retroflexus); assay: Test A preemergence, visual injury rating; details: 0 to 100 scale (0 no effect, 100 complete control)
Outline: as §1

[5] = tested on: ragweed (common ragweed, Ambrosia elatior); assay: Test A preemergence, visual injury rating; details: 0 to 100 scale (0 no effect, 100 complete control)
Outline: as §1

[6] = tested on: blackgrass (Alopecurus myosuroides); assay: Test C postemergence, plant response rating; details: for Plant response rating, Blackgrass: scale 0 to 100; for Blackgrass plant response rating: scale 0 to 100 (0 no effect, 100 complete control)
Source text: (§2) Seeds of plant species selected from blackgrass (Alopecurus myosuroides), ryegrass, Italian (Italian ryegrass, Lolium multiflorum), wheat (winter wheat, Triticum aestivum), galium (catchweed bedstraw, Galium aparine), corn (Zea mays), crabgrass, large (large crabgrass, Digitaria sanguinalis), foxtail, giant (giant foxtail, Setaria faberii), johnsongrass (Sorghum halepense), lambsquarters (Chenopodium album), morningglory (Ipomoea coccinea), nutsedge, yellow (yellow nutsedge, Cyperus esculentus), pigweed (Amaranthus retroflexus), ragweed (common ragweed, Ambrosia elatior), soybean (Glycine max), barnyardgrass (Echinochloa crus-galli), oilseed rape (Brassica napus), pigweed, palmer (palmer pigweed, Amaranthus palmeri), waterhemp (common waterhemp, Amaranthus rudis), velvetleaf (Abutilon theophrasti), kochia (Kochia scoparia), surinam grass (Brachiaria decumbens), nightshade (eastern black nightshade, Solanum ptycanthum), wild poinsettia (Euphorbia heterophylla), windgrass (Apera spica-venti), and oat, wild (wild oat Avena fatua), were planted into a blend of loam soil and sand or a silt loam soil and treated preemergence with test chemicals formulated in a non-phytotoxic solvent mixture which included a surfactant.
(§3) At the same time, plants selected from these crop and weed species and also chickweed (common chickweed, Stellaria media), buckwheat, wild (wild buckwheat, Polygonum convolvulus), wild mustard (Sinapis arvensis), field poppy (Papaver rhoeas), field violet (Viola arvensis), geranium, cutleaf (cutleaf geranium, Geranium dissectum), Canada thistle (Cirsium arvense), and speedwell (bird's-eye speedwell, Veronica persica), were planted in pots containing Sunshine Redi-Earth® planting medium comprising spaghnum peat moss, vermiculite, starter nutrients and dolomitic limestone and treated with postemergence applications of test chemicals formulated in the same manner. Plants ranged in height from 2 to 18 cm (1- to 4-leaf stage) for postemergence treatments. Treated plants and controls were maintained in a greenhouse for 13 to 15 d, after which time all species were compared to controls and visually evaluated. Plant response ratings, summarized in Table C, are based on a scale of 0 to 100 where 0 is no effect and 100 is complete control. A dash (-) response means no test result.

[7] = tested on: chickweed (common chickweed, Stellaria media); assay: Test C postemergence, plant response rating; details: for Plant response rating, Chickweed: scale 0 to 100; for Chickweed plant response rating: scale 0 to 100 (0 no effect, 100 complete control)
Source text: as §2, §3

corn (Zea mays) = assay: Test C postemergence, plant response rating; details: for Plant response rating, Corn: scale 0 to 100; for Corn plant response rating: scale 0 to 100 (0 no effect, 100 complete control)
Source text: as §2, §3

[8] = tested on: crabgrass, large (large crabgrass, Digitaria sanguinalis); assay: Test C postemergence, plant response rating; details: for Plant response rating, Crabgrass, Large: scale 0 to 100; for Crabgrass, Large plant response rating: scale 0 to 100 (0 no effect, 100 complete control)
Source text: as §2, §3

[9] = tested on: foxtail, giant (giant foxtail, Setaria faberii); assay: Test C postemergence, plant response rating; details: for Plant response rating, Foxtail, Giant: scale 0 to 100; for Foxtail, Giant plant response rating: scale 0 to 100 (0 no effect, 100 complete control)
Source text: as §2, §3

[10] = tested on: galium (catchweed bedstraw, Galium aparine); assay: Test C postemergence, plant response rating; details: for Plant response rating, Galium: scale 0 to 100; for Galium plant response rating: scale 0 to 100 (0 no effect, 100 complete control)
Source text: as §2, §3

[11] = tested on: lambsquarters (Chenopodium album); assay: Test C postemergence, plant response rating; details: for Plant response rating, Lambsquarters: scale 0 to 100; for Lambsquarters plant response rating: scale 0 to 100 (0 no effect, 100 complete control)
Source text: as §2, §3

[12] = tested on: nutsedge, yellow (yellow nutsedge, Cyperus esculentus); assay: Test C postemergence, plant response rating; details: for Plant response rating, Nutsedge, Yellow: scale 0 to 100; for Nutsedge, Yellow plant response rating: scale 0 to 100 (0 no effect, 100 complete control)
Source text: as §2, §3

[13] = tested on: oat, wild (wild oat Avena fatua); assay: Test C postemergence, plant response rating; details: for Plant response rating, Oat, Wild: scale 0 to 100; for Oat, Wild plant response rating: scale 0 to 100 (0 no effect, 100 complete control)
Source text: as §2, §3

[14] = tested on: ryegrass, Italian (Italian ryegrass, Lolium multiflorum); assay: Test C postemergence, plant response rating; details: for Plant response rating, Ryegrass, Italian: scale 0 to 100; for Ryegrass, Italian plant response rating: scale 0 to 100 (0 no effect, 100 complete control)
Source text: as §2, §3

soybean (Glycine max) = assay: Test C postemergence, plant response rating; details: for Plant response rating, Soybean: scale 0 to 100; for Soybean plant response rating: scale 0 to 100 (0 no effect, 100 complete control)
Source text: as §2, §3

[15] = tested on: wheat (winter wheat, Triticum aestivum); assay: Test C postemergence, plant response rating; details: for Plant response rating, Wheat: scale 0 to 100; for Wheat plant response rating: scale 0 to 100 (0 no effect, 100 complete control)
Source text: as §2, §3

`O=C(OCCC(F)(F)F)c1c(Br)cccc1Oc1ncc(Br)cn1` [Compound 33] was tested, and the “Ryegrass, Italian plant response rating” value ([1]; 125 g ai/ha) was 40, the “Ryegrass, Italian plant response rating” value ([1]; 500 g ai/ha) was 100 and the “Barnyardgrass plant response rating” value ([2]; 125 g ai/ha) was 100. For the same compound, the “Barnyardgrass plant response rating” value ([2]; 500 g ai/ha) was 100, the “Foxtail, Giant plant response rating” value ([3]; 125 g ai/ha) was 100 and the “Foxtail, Giant plant response rating” value ([3]; 500 g ai/ha) was 100. The “Kochia plant response rating” value (kochia (Kochia scoparia); 125 g ai/ha) was 60, the “Kochia plant response rating” value (kochia (Kochia scoparia); 500 g ai/ha) was 100 and the “Pigweed plant response rating” value ([4]; 125 g ai/ha) was 100. The “Pigweed plant response rating” value ([4]; 500 g ai/ha) was 100, the “Ragweed plant response rating” value ([5]; 125 g ai/ha) was 0 and the “Ragweed plant response rating” value ([5]; 500 g ai/ha) was 20. The “Plant response rating, Blackgrass” value ([6]; 16 g ai/ha) was 5, the “Plant response rating, Blackgrass” value ([6]; 31 g ai/ha) was 5 and the “Blackgrass plant response rating” value ([6]; 62 g ai/ha) was 10. For the same compound, the “Blackgrass plant response rating” value ([6]; 125 g ai/ha) was 20, the “Plant response rating, Chickweed” value ([7]; 16 g ai/ha) was 50 and the “Plant response rating, Chickweed” value ([7]; 31 g ai/ha) was 55. For the same compound, the “Chickweed plant response rating” value ([7]; 62 g ai/ha) was 85, the “Chickweed plant response rating” value ([7]; 125 g ai/ha) was 85 and the “Plant response rating, Corn” value (corn (Zea mays); 16 g ai/ha) was 20. For the same compound, the “Plant response rating, Corn” value (corn (Zea mays); 31 g ai/ha) was 25, the “Corn plant response rating” value (corn (Zea mays); 62 g ai/ha) was 25 and the “Corn plant response rating” value (corn (Zea mays); 125 g ai/ha) was 30. The “Plant response rating, Crabgrass, Large” value ([8]; 16 g ai/ha) was 5, the “Plant response rating, Crabgrass, Large” value ([8]; 31 g ai/ha) was 5 and the “Crabgrass, Large plant response rating” value ([8]; 62 g ai/ha) was 10. For the same compound, the “Crabgrass, Large plant response rating” value ([8]; 125 g ai/ha) was 15, the “Plant response rating, Foxtail, Giant” value ([9]; 16 g ai/ha) was 5 and the “Plant response rating, Foxtail, Giant” value ([9]; 31 g ai/ha) was 10. For the same compound, the “Foxtail, Giant plant response rating” value ([9]; 62 g ai/ha) was 10, the “Foxtail, Giant plant response rating” value ([9]; 125 g ai/ha) was 20 and the “Plant response rating, Galium” value ([10]; 16 g ai/ha) was 50. For the same compound, the “Plant response rating, Galium” value ([10]; 31 g ai/ha) was 70, the “Galium plant response rating” value ([10]; 62 g ai/ha) was 80 and the “Galium plant response rating” value ([10]; 125 g ai/ha) was 85. The “Plant response rating, Lambsquarters” value ([11]; 16 g ai/ha) was 60, the “Plant response rating, Lambsquarters” value ([11]; 31 g ai/ha) was 70 and the “Lambsquarters plant response rating” value ([11]; 62 g ai/ha) was 80. The “Lambsquarters plant response rating” value ([11]; 125 g ai/ha) was 90, the “Plant response rating, Nutsedge, Yellow” value ([12]; 16 g ai/ha) was 5 and the “Plant response rating, Nutsedge, Yellow” value ([12]; 31 g ai/ha) was 5. For the same compound, the “Nutsedge, Yellow plant response rating” value ([12]; 62 g ai/ha) was 5, the “Nutsedge, Yellow plant response rating” value ([12]; 125 g ai/ha) was 10 and the “Plant response rating, Oat, Wild” value ([13]; 16 g ai/ha) was 5. The “Plant response rating, Oat, Wild” value ([13]; 31 g ai/ha) was 10, the “Oat, Wild plant response rating” value ([13]; 62 g ai/ha) was 25 and the “Oat, Wild plant response rating” value ([13]; 125 g ai/ha) was 30. The “Plant response rating, Ryegrass, Italian” value ([14]; 16 g ai/ha) was 0, the “Plant response rating, Ryegrass, Italian” value ([14]; 31 g ai/ha) was 5 and the “Ryegrass, Italian plant response rating” value ([14]; 62 g ai/ha) was 5. For the same compound, the “Ryegrass, Italian plant response rating” value ([14]; 125 g ai/ha) was 30, the “Plant response rating, Soybean” value (soybean (Glycine max); 16 g ai/ha) was 25 and the “Plant response rating, Soybean” value (soybean (Glycine max); 31 g ai/ha) was 65. For the same compound, the “Soybean plant response rating” value (soybean (Glycine max); 62 g ai/ha) was 30, the “Soybean plant response rating” value (soybean (Glycine max); 125 g ai/ha) was 55 and the “Plant response rating, Wheat” value ([15]; 16 g ai/ha) was 0. For the same compound, the “Plant response rating, Wheat” value ([15]; 31 g ai/ha) was 0, the “Wheat plant response rating” value ([15]; 62 g ai/ha) was 0 and the “Wheat plant response rating” value ([15]; 125 g ai/ha) was 5.
